ChEMBL document CHEMBL5653615 (J Biol Chem, 2013)

Experiments:
[1] = target: T1, Serine/threonine-protein kinase ULK1 (Homo sapiens) (UniProt O75385); assay: Inhibition of human ULK1 at 18.6 nM by HotSpot assay relative to control
T1 sequence (whole entry): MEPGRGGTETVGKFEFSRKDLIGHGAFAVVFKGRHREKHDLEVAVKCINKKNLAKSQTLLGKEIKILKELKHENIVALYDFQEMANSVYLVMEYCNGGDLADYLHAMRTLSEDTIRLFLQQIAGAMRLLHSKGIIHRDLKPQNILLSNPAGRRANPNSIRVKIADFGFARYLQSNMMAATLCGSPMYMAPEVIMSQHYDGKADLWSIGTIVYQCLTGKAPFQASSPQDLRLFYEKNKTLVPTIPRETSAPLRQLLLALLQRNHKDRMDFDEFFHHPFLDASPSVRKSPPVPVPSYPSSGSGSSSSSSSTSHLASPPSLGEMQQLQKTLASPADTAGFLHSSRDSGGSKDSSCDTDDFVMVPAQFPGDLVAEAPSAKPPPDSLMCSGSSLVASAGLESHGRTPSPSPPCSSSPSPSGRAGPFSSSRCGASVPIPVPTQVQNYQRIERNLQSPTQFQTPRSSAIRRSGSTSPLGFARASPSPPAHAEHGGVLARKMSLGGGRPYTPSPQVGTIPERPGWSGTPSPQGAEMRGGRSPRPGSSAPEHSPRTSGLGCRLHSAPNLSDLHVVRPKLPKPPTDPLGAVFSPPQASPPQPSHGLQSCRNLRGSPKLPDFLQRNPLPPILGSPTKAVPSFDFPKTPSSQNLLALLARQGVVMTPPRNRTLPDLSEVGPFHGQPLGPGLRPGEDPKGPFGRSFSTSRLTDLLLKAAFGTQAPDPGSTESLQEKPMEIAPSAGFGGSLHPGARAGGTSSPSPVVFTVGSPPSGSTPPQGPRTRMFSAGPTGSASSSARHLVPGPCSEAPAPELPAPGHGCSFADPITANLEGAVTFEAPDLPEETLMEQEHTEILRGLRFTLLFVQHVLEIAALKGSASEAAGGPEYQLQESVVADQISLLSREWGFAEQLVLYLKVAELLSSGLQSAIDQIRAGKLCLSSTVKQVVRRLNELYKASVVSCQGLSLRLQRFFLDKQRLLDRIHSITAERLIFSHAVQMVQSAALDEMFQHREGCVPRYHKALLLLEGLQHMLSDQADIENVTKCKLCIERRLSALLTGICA

[2] = target: T2, Serine/threonine-protein kinase STK11 (Homo sapiens) (UniProt Q15831); assay: Inhibition of human LKB1 at 18.6 nM by HotSpot assay relative to control
T2 sequence (whole entry): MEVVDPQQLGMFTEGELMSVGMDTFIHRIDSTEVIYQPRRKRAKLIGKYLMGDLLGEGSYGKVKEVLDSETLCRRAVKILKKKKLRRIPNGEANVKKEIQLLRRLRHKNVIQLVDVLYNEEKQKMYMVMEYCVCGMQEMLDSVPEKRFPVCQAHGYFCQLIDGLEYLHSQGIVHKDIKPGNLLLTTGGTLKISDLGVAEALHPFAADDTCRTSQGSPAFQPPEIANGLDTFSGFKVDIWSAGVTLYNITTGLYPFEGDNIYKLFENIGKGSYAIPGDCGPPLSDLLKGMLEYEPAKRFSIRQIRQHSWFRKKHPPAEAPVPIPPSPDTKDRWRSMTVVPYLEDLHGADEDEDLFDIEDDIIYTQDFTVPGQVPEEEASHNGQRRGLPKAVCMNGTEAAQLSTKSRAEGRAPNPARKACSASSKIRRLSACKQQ

[3] = target: STE20/SPS1-related proline-alanine-rich protein kinase (Homo sapiens) (UniProt Q9UEW8); assay: Inhibition of human STLK3 at 18.6 nM by HotSpot assay relative to control
[4] = target: Dual specificity mitogen-activated protein kinase kinase 1 (Homo sapiens) (UniProt Q02750); assay: Inhibition of human MEK1 at 18.6 nM by HotSpot assay relative to control
[5] = target: Death-associated protein kinase 2 (Homo sapiens) (UniProt Q9UIK4); assay: Inhibition of human DAPK2 at 1.82 nM by HotSpot assay relative to control
[6] = target: Leucine-rich repeat serine/threonine-protein kinase 2 (Homo sapiens) (UniProt Q5S007); assay: Inhibition of human LRRK2 at 1.82 nM by HotSpot assay relative to control
[7] = target: T3, Serine/threonine-protein kinase Nek2 (Homo sapiens) (UniProt P51955); assay: Inhibition of human NEK2 at 1.82 nM by HotSpot assay relative to control
T3 sequence (whole entry): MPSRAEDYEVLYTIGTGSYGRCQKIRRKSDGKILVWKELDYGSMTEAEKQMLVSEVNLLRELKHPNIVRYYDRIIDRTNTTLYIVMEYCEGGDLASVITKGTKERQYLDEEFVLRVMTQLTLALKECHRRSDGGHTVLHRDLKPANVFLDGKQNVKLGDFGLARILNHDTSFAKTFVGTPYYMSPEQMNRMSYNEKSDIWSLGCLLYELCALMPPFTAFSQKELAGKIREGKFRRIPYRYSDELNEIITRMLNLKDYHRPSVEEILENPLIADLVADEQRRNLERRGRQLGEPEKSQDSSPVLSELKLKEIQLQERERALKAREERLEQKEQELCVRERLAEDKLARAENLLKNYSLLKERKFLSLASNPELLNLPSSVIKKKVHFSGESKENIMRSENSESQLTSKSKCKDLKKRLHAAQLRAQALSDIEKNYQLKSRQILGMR

[8] = target: Serine/threonine-protein kinase PAK 5 (Homo sapiens) (UniProt Q9P286); assay: Inhibition of human PAK5 at 1.82 nM by HotSpot assay relative to control
[9] = target: T4, Activin receptor type-1B (Homo sapiens) (UniProt P36896); assay: Inhibition of human ALK4 at 1.82 nM by HotSpot assay relative to control
T4 sequence (whole entry): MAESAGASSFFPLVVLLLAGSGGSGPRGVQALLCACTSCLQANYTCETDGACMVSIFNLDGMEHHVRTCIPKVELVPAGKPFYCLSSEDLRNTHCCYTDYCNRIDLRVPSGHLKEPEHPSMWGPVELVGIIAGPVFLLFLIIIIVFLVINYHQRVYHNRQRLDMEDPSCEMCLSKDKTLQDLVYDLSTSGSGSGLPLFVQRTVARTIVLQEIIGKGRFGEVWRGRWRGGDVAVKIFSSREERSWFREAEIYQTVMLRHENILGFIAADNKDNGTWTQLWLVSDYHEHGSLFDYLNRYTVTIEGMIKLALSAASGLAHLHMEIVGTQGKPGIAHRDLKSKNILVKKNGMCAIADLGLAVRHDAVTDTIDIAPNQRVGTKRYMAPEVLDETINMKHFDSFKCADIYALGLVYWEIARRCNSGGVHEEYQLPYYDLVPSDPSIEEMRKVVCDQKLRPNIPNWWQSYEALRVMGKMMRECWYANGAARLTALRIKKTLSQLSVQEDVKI

Chain of Dual specificity mitogen-activated protein kinase kinase 1 (Homo sapiens) (Q02750 whole entry): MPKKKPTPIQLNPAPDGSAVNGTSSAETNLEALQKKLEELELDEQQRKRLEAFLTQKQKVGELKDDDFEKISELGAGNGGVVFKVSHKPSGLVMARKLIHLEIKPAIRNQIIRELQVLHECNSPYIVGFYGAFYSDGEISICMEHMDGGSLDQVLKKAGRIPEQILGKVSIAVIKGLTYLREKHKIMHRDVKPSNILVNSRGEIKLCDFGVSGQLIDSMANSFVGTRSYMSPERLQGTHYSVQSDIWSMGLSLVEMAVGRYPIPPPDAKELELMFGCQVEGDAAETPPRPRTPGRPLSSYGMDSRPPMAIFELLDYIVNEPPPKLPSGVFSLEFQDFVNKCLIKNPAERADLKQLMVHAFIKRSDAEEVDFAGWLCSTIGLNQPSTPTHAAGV
Chain of Serine/threonine-protein kinase PAK 5 (Homo sapiens) (Q9P286 whole entry, looked up): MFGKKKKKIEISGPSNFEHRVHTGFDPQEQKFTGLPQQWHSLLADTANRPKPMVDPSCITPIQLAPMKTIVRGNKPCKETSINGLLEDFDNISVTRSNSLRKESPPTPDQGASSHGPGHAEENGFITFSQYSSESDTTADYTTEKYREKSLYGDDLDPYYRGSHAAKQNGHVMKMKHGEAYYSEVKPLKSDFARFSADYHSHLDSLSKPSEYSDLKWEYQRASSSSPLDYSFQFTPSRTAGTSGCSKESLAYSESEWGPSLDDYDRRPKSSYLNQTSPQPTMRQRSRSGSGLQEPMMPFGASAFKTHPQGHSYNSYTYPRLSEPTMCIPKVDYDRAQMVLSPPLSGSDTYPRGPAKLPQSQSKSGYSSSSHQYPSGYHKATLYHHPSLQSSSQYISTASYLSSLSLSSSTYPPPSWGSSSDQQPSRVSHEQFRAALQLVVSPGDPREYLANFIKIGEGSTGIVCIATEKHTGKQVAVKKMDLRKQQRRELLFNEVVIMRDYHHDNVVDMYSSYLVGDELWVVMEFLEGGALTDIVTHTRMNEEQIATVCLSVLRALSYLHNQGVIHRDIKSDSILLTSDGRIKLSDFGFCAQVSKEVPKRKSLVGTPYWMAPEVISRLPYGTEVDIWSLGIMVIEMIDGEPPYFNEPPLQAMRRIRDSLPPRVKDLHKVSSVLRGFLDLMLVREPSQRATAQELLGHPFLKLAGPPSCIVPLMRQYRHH
Chain of Leucine-rich repeat serine/threonine-protein kinase 2 (Homo sapiens) (Q5S007 whole entry): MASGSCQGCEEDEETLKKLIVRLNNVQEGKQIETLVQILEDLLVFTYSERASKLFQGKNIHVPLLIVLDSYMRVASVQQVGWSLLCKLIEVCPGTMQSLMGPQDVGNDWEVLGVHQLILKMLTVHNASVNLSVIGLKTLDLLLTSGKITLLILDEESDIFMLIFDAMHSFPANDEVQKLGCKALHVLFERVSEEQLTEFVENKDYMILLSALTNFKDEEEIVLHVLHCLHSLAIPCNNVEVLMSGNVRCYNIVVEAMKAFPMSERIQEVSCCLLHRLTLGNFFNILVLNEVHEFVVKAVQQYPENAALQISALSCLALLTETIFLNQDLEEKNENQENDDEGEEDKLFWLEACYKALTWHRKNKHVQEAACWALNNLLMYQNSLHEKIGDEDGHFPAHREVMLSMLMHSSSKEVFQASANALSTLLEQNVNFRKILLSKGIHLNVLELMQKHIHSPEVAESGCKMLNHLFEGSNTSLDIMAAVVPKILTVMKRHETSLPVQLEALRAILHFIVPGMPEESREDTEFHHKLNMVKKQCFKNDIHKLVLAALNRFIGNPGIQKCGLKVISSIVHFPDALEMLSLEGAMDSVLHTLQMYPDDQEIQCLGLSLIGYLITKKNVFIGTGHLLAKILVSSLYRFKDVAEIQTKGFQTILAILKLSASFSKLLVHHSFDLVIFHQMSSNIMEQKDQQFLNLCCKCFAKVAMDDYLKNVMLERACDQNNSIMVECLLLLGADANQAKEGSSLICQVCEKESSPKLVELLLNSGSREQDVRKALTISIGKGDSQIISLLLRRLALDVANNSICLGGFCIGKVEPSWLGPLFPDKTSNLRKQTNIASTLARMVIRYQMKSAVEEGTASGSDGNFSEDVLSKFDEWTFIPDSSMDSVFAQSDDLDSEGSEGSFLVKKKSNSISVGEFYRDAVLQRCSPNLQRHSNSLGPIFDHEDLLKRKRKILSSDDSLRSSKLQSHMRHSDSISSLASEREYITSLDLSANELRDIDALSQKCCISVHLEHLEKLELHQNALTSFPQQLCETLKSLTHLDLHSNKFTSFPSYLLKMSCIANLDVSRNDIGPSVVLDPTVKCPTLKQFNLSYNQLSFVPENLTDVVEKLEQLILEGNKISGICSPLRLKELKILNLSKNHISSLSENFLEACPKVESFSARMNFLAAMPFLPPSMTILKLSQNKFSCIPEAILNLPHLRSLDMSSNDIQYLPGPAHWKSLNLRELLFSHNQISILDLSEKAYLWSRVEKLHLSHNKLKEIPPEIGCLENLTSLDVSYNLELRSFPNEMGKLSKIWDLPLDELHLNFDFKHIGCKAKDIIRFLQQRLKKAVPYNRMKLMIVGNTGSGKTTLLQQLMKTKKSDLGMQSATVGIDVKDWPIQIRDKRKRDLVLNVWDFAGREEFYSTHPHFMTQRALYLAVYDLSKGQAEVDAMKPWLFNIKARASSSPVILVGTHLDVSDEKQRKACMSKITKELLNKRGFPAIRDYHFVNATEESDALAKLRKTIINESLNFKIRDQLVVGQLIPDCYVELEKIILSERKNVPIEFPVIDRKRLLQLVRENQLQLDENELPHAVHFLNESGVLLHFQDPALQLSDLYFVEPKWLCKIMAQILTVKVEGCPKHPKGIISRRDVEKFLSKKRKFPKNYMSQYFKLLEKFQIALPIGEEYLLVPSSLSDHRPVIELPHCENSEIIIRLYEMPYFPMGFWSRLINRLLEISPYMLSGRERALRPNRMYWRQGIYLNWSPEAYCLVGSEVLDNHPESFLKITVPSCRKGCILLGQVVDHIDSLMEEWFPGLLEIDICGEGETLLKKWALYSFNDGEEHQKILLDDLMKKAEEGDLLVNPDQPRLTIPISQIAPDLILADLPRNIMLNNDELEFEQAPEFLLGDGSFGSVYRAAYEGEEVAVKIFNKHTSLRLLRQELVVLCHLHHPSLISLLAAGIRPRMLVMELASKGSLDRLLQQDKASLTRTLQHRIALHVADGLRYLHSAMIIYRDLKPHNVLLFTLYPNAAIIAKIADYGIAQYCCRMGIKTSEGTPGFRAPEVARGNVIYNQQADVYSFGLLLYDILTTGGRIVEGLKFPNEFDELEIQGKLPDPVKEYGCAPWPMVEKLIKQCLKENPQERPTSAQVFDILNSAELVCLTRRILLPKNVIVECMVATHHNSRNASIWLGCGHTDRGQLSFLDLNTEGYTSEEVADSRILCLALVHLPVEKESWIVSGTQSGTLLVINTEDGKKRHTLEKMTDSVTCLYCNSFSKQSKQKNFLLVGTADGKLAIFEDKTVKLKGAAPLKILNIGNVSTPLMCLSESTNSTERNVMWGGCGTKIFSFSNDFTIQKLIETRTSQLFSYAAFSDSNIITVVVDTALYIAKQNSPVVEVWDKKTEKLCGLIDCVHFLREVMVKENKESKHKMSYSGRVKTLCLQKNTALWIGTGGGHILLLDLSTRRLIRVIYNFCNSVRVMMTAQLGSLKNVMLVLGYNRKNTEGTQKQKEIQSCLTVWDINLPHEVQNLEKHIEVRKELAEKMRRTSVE
Chain of Death-associated protein kinase 2 (Homo sapiens) (Q9UIK4 whole entry, looked up): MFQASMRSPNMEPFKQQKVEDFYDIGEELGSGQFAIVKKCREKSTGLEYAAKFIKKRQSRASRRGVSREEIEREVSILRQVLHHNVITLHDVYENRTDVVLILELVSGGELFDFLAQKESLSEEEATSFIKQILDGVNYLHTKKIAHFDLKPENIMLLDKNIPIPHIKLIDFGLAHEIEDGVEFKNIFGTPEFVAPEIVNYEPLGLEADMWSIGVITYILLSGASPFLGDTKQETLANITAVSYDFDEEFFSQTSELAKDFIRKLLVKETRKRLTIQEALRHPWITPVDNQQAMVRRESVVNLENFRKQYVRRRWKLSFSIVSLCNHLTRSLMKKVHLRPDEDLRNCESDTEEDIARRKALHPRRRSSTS

inhibition [1]	inhibition [2]	inhibition [3]	inhibition [4]	inhibition [6]	inhibition [7]	inhibition [8]	inhibition [9]	Structure (SMILES)	inhibition [5]
2.65%	2.28%	-7.19%	-8.63%	–	–	–	–	C[C@]1(O)C[C@@H](c2nc(-c3ccc4ccc(-c5ccccc5)nc4c3)c3c(N)nccn32)C1	–
–	–	–	–	-6.63%	0.74%	-4.48%	0.66%	C[C@@]1(C(=O)Nc2ccc(F)nc2)CCCN1c1nc(Nc2cc(C3CC3)n[nH]2)c2cccn2n1	-1.36%
